Key:
Assay in all cases: selective drug sensitivity score (sDSS, relative to normal bone marrow) (sDSS (score)); higher = more potent and effective on the cell line relative to normal bone marrow cells
Details in all cases: 72 h
ALL-PO = tested on: ALL-PO
KOPN-8 = tested on: KOPN-8
MN-60 = tested on: MN-60
COG-LL-394h = tested on: COG-LL-394h
RCH-ACV = tested on: RCH-ACV
380 = tested on: 380
COG-LL-332h = tested on: COG-LL-332h
JURKAT = tested on: JURKAT
P12-ICHIKAWA = tested on: P12-ICHIKAWA
KASUMI-9 = tested on: KASUMI-9
MOLT-14 = tested on: MOLT-14
HAL-01 = tested on: HAL-01
REH = tested on: REH
HPB-ALL = tested on: HPB-ALL
DND-41 = tested on: DND-41
MHH-CALL-3 = tested on: MHH-CALL-3
MOLT-16 = tested on: MOLT-16
COG-LL-402h = tested on: COG-LL-402h
COG-LL-317 = tested on: COG-LL-317
CCRF-HSB2 = tested on: CCRF-HSB2
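Also: ALL cell lines in 384-well plates, five doses spanning 10,000-fold, each plate scaled between vehicle and 100 µmol/L benzalkonium chloride controls, sDSS an adapted area-under-curve metric.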

SMILES	selective drug sensitivity score (ALL-PO)	selective drug sensitivity score (KOPN-8)	selective drug sensitivity score (MN-60)	selective drug sensitivity score (COG-LL-394h)	selective drug sensitivity score (RCH-ACV)	selective drug sensitivity score 380	selective drug sensitivity score (COG-LL-332h)	selective drug sensitivity score (JURKAT)	selective drug sensitivity score (P12-ICHIKAWA)	selective drug sensitivity score (KASUMI-9)	selective drug sensitivity score (MOLT-14)	selective drug sensitivity score (HAL-01)	selective drug sensitivity score (REH)	selective drug sensitivity score (HPB-ALL)	selective drug sensitivity score (DND-41)	selective drug sensitivity score (MHH-CALL-3)	selective drug sensitivity score (MOLT-16)	selective drug sensitivity score (COG-LL-402h)	selective drug sensitivity score (COG-LL-317)	selective drug sensitivity score (CCRF-HSB2)
Cc1nc(-c2cn3c(n2)-c2ccc(-c4cnn(C(C)(C)C(N)=O)c4)cc2OCC3)n(C(C)C)n1 [Taselisib] (top concentration 1000 nM)	13.2	-0.9	-0.4	-2.7	22.1	7.4	0.7	-2.6	-0.3	6.3	-4.3	11.1	5.7	-0.4	-4.3	-4.3	2.8	10.9	0.8	2.3
Cc1nc(Nc2ncc(C(=O)Nc3c(C)cccc3Cl)s2)cc(N2CCN(CCO)CC2)n1 [Dasatinib] (top concentration 1000 nM)	-0.2	0.4	-1.7	0.3	21.5	-2.8	17	-2.8	-1.7	3.1	4.2	-2.8	-2.8	-2.8	1.4	-2.8	-2.8	16.8	-0.7	37.8
N#CCNC(=O)c1ccc(-c2ccnc(Nc3ccc(N4CCOCC4)cc3)n2)cc1 [Momelotinib] (top concentration 10000 nM)	2.48	-1.62	-7.22	-3.92	5.78	-9.62	-0.82	-5.12	-0.12	-0.12	-3.92	-5.22	-4.82	-8.52	-0.32	-9.42	0.28	-0.12	-5.32	1.08
C[C@@H](Oc1ccc2[nH]nc(/C=C/c3cnn(CCO)c3)c2c1)c1c(Cl)cncc1Cl (top concentration 1000 nM)	4.96	-2.44	-7.04	-0.54	10.6	-1.34	1.96	-4.84	-2.64	-1.54	-0.94	1.36	-0.64	1.46	7.06	-7.04	-2.04	-2.14	-2.74	3.86
Cc1ncc(-c2ccnc(Nc3ccc(S(C)(=O)=O)cc3)n2)n1C(C)C [AZD-5438] (top concentration 10000 nM)	-6.06	5.24	-7.96	-5.86	2.44	-7.56	-0.16	-1.06	-0.36	-0.26	3.64	-5.96	1.54	-5.06	-2.06	6.64	5.44	-0.46	-0.56	1.34
CN1CCN(c2nc(C3=C(c4c[nH]c5ccccc45)C(=O)NC3=O)c3ccccc3n2)CC1 [Sotrastaurin] (top concentration 10000 nM)	5	6.4	-2.3	0.2	3.4	4.5	2	-1.7	-1.3	0.5	-2	2.3	4.8	2.6	0.3	5.8	4.4	5.2	0	3.5
O=C(Nc1cccc(Nc2ncc(Br)c(NCCc3cnc[nH]3)n2)c1)N1CCCC1 [BX-912] (top concentration 10000 nM)	14	12.4	-1.44	-2.24	13.3	8.26	7.56	-1.34	10.2	10.5	9.36	-3.64	7.96	-0.34	2.56	3.06	9.06	6.16	9.46	9.66
CC(C)c1c(C(=O)Nc2ccccc2)c(-c2ccccc2)c(-c2ccc(F)cc2)n1CC[C@@H](O)C[C@@H](O)CC(=O)O [Atorvastatin] (top concentration 10000 nM)	1.1	6.6	-2.5	-1.2	-1	-3	1.2	-3.7	0.7	-3.7	-0.9	-1.9	1	-1.5	1.9	-3.7	2	-1.8	8	-2.1
COc1cccc(OCCCN)c1-c1cc(Nc2cnc(C#N)cn2)n[nH]1 [Prexasertib] (top concentration 10000 nM)	14.5	20.4	4.24	-0.96	20.9	15.7	20.7	17.4	19	20.4	18.4	19	17	14.6	19.6	13.4	21	14.8	20.2	18.6
CCn1c(C(=O)N(C2CC2)C2CC2)cc2c3c(ncn3C)c(Nc3cc(C)n(C)n3)nc21 (top concentration 10000 nM)	8.14	-4.36	-4.36	-4.36	-3.06	-4.36	-4.36	-4.36	-4.36	0.04	-4.36	1.04	-4.36	-3.16	-3.86	-4.36	-4.36	-4.36	-4.36	5.14
CC(C)c1cc(C(=O)N2Cc3ccc(CN4CCN(C)CC4)cc3C2)c(O)cc1O [Onalespib] (top concentration 2500 nM)	1.62	6.82	-0.48	-2.38	6.52	6.52	7.62	-1.18	2.22	-2.18	6.02	1.82	-0.08	4.62	4.62	8.42	7.42	7.22	11.5	7.32
Cc1noc2c1-c1ccccc1C(c1ccc(Cl)cc1)=N[C@H]2CC(N)=O [CPI-0610] (top concentration 10000 nM)	7.9	11.1	6.9	0.5	10.9	1.7	-2.8	-0.2	4.4	8.4	0.3	-2.2	-1.2	1	1.6	17.9	6.7	4.9	3.3	0.8
Nc1ncnc2c1nc(Cl)n2[C@@H]1O[C@H](CO)[C@@H](O)[C@H]1O [8-chloro-adenosine] (top concentration 50000 nM)	1.6	5.9	-2.8	5.1	1.4	-6.3	0.9	0.3	-2.4	2.4	0.3	-1.5	-0.6	-4.8	-3.9	-1.6	7.1	3.1	6	3.6
C/C=C1\NC(=O)[C@H]2CSSCC/C=C/[C@H](CC(=O)N[C@H](C(C)C)C(=O)N2)OC(=O)[C@H](C(C)C)NC1=O [Romidepsin] (top concentration 1000 nM)	6.96	3.16	-4.94	-0.94	2.36	8.56	1.36	2.06	1.66	3.16	2.16	-17.5	1.26	3.66	4.76	9.76	2.76	8.76	0.76	1.46
Cc1cc2c(C(C)C)c(O)c(O)c(C=O)c2c(O)c1-c1c(C)cc2c(C(C)C)c(O)c(O)c(C=O)c2c1O [AT-101] (top concentration 100000 nM)	8.98	14.6	3.28	3.78	0.98	-0.22	4.08	4.28	2.78	6.48	4.98	0.58	5.28	10.9	4.68	-0.92	5.88	4.18	8.08	2.48
C=C1C[C@@H]2[C@H](CC[C@]3(C)C(=O)CC[C@@H]23)[C@@]2(C)C=CC(=O)C=C12 [Exemestane] (top concentration 10000 nM)	-1.9	5.8	-1.9	-0.4	0.4	7.7	2.4	-1.4	-1.9	-0.8	1	3.8	-1.9	5.5	-1.9	0.1	-1.7	2.2	0	-1
O=C(Nc1ccncc1)C(=O)c1cn(Cc2ccc(Cl)cc2)c2ccccc12 [Indibulin] (top concentration 10000 nM)	12.7	17.9	1.84	1.54	14.6	8.74	6.34	15.1	6.54	12	14.1	5.34	4.14	14.2	5.54	1.64	16	3.64	6.24	11.2
Nc1nc(Cl)nc2c1ncn2[C@@H]1O[C@H](CO)[C@@H](O)[C@@H]1F [Clofarabine] (top concentration 10000 nM)	1.2	6.7	-7.1	-27.4	6.8	13.4	4.3	1.9	2.1	7.3	11.4	2.7	2.3	-8.5	1.4	10.9	4.4	8.1	7.1	6.8

From the supplement of paper PMC8967900
